The source of these data is US20230331673A1, “COMPOSITION OF COMPOUNDS THAT MODULATE CELL METABOLISM AND METHODS OF USE” (CRESCENTA BIOSCIENCES, priority 2020, published 2023).

The subject of the assay is differentiated 3T3-L1 mouse adipocyte cells. Description: Adipocyte glucose consumption in differentiated 3T3-L1 mouse adipocyte cells (loss of glucose from medium, colorimetric). It counts as cell-based. The conditions noted are these: compound 10 μM, 22 to 24 hours, differentiated 3T3-L1 adipocytes, compound/DMSO, read-out: Glucose consumption (fold change) Mean. On the procedure: Activity of compounds on adipocyte glucose consumption was tested in differentiated 3T3-L1 mouse adipocyte cells. 3T3-L1 preadipocytes (ATCC) were routinely cultured in a growth medium composed of DMEM high-glucose (Sigma), 10% FBS (Gibco), 10 U/ml penicillin and 10 μg/ml streptomycin (P/S; Gibco). To induce adipogenic differentiation, a confluent layer of 3T3-L1 cells were incubated with the growth medium containing 2 μM rosiglitazone, 1 μM dexamethasone, 500 μM IBMX, and 1 μg/ml insulin (Sigma). Forty-eight (48) hours later (on day 2) and on days 4 and 6, medium of the cells was replaced with fresh medium containing 1 μg/ml insulin. On days 8 and 10, the medium was refreshed with regular growth medium and addition of insulin was omitted. On day 11 or 12, medium of the cells were replaced with fresh medium containing either the indicated compounds (10 μM) or the vehicle in which the compounds were dissolved (DMSO). The final concentration of DMSO was 0.1% (v/v). Growth medium containing 0.1% DMSO was incubated in culture wells containing no cells and used as control. Twenty-two to 24 hours later, medium was harvested and subjected to centrifugation at 10,000 g for 5 min. Glucose concentration in the supernatants was determined using a colorimetric assay (Glucose Assay Kit I, Eton Biosciences). Glucose consumption in compound and vehicle treated cells was measured as loss of glucose from the culture medium and represented as mean fold change (compound/DMSO) t standard deviation (SD).
For `CCCCCCC1CCCc2c(n(Cc3cccc(C(=O)O)c3)c3c(C(=O)O)cccc23)C1` (stereo not shown) [5-[(3-carboxyphenyl)methyl]-7-hexyl-5H,6H,7H,8H,9H,10H-cyclohepta[b]indole-4-carboxylic acid], the fold induction at 10 µM came to 1.15.

As for `CCCCCCC1CCCc2c(n(Cc3cccc(Cl)c3)c3c(C(=O)O)cccc23)C1` (stereo not shown) [5-[(3-chlorophenyl)methyl]-7-hexyl-5H,6H,7H,8H,9H,10H-cyclohepta[b]indole-4-carboxylic acid], the fold induction at 10 µM was determined as 1.18.

For `CCCCCCC1CCCc2c(n(Cc3cccc(C#N)c3F)c3c(C(=O)O)cccc23)C1` (stereo not shown) [5-[(3-cyano-2-fluorophenyl)methyl]-7-hexyl-5H,6H,7H,8H,9H,10H-cyclohepta[b]indole-4-carboxylic acid], the fold induction at 10 µM turned out to be 1.36.

As to `CCCCCCC1CCCc2c(n(Cc3cccc(C#N)c3)c3c(C(=O)O)cc(F)cc23)C1` (stereo not shown) [5-[(3-cyanophenyl)methyl]-2-fluoro-7-hexyl-5H,6H,7H,8H,9H,10H-cyclohepta[b]indole-4-carboxylic acid], the fold induction at 10 µM was determined as 1.33.

For `N#Cc1cccc(Cn2c3c(c4cccc(C(=O)O)c42)CCCC(CCc2ccccc2)C3)c1` (stereo not shown) [5-[(3-cyanophenyl)methyl]-7-(2-phenylethyl)-5H,6H,7H,8H,9H,10H-cyclohepta[b]indole-4-carboxylic acid], the fold induction at 10 µM turned out to be 1.02.

`CCC1CCCc2c(n(Cc3cccc(C#N)c3)c3c(C(=O)O)cccc23)C1` (stereo not shown) [5-[(3-cyanophenyl)methyl]-7-ethyl-5H,6H,7H,8H,9H,10H-cyclohepta[b]indole-4-carboxylic acid]: the fold induction at 10 µM is 1.16.

Turning to `CCCCCCC1CCCc2c(n(Cc3cccc(C#N)c3)c3c(C(=O)O)cccc23)C1` (stereo not shown) [5-[(3-cyanophenyl)methyl]-7-hexyl-5H,6H,7H,8H,9H,10H-cyclohepta[b]indole-4-carboxylic acid], the fold induction at 10 µM is 1.26.

Consider `CCCCCCCCC1CCCc2c(n(Cc3cccc(C#N)c3)c3c(C(=O)O)cccc23)C1` (stereo not shown) [5-[(3-cyanophenyl)methyl]-7-octyl-5H,6H,7H,8H,9H,10H-cyclohepta[b]indole-4-carboxylic acid], for which the fold induction at 10 µM amounted to 1.12.

`CCCCCC1CCCc2c(n(Cc3cccc(C#N)c3)c3c(C(=O)O)cccc23)C1` (stereo not shown) [5-[(3-cyanophenyl)methyl]-7-pentyl-5H,6H,7H,8H,9H,10H-cyclohepta[b]indole-4-carboxylic acid]: the fold induction at 10 µM turned out to be 1.35.

For `CCC1CCCCc2c1c1cccc(C(=O)O)c1n2Cc1cccc(C#N)c1` (stereo not shown) [5-[(3-cyanophenyl)methyl]-10-ethyl-5H,6H,7H,8H,9H,10H-cyclohepta[b]indole-4-carboxylic acid], the fold induction at 10 µM amounted to 1.15.

`CCCCCC1CCCCc2c1c1cccc(C(=O)O)c1n2Cc1cccc(C#N)c1` (stereo not shown) [5-[(3-cyanophenyl)methyl]-10-pentyl-5H,6H,7H,8H,9H,10H-cyclohepta[b]indole-4-carboxylic acid]: the fold induction at 10 µM came out at 1.2.

Consider `CCCC1CCCCc2c1c1cccc(C(=O)O)c1n2Cc1cccc(C#N)c1` (stereo not shown) [5-[(3-cyanophenyl)methyl]-10-propyl-5H,6H,7H,8H,9H,10H-cyclohepta[b]indole-4-carboxylic acid], for which the fold induction at 10 µM was 1.18.

As for `CCCCCCC1CCCc2c(n(Cc3cccc(F)c3)c3c(C(=O)O)cccc23)C1` (stereo not shown) [5-[(3-fluorophenyl)methyl]-7-hexyl-5H,6H,7H,8H,9H,10H-cyclohepta[b]indole-4-carboxylic acid], the fold induction at 10 µM amounted to 1.14.

Turning to `CCCCCCC1CCCc2c(n(Cc3ccc(C(N)=O)cc3)c3c(C(=O)O)cccc23)C1` (stereo not shown) [5-[(4-carbamoylphenyl)methyl]-7-hexyl-5H,6H,7H,8H,9H,10H-cyclohepta[b]indole-4-carboxylic acid], the fold induction at 10 µM was determined as 1.05.

Regarding `CCCCCCC1CCCc2c(n(Cc3ccc(C#N)cc3)c3c(C(=O)O)cccc23)C1` (stereo not shown) [5-[(4-cyanophenyl)methyl]-7-hexyl-5H,6H,7H,8H,9H,10H-cyclohepta[b]indole-4-carboxylic acid], the fold induction at 10 µM came out at 0.94.

Turning to `CCCCCCC1CCCc2c(n(Cc3ccc(F)cc3)c3c(C(=O)O)cccc23)C1` (stereo not shown) [5-[(4-fluorophenyl)methyl]-7-hexyl-5H,6H,7H,8H,9H,10H-cyclohepta[b]indole-4-carboxylic acid], the fold induction at 10 µM is 1.17.

As to `CCCCCCC1CCCc2c(n(Cc3ccc(C#N)o3)c3c(C(=O)O)cccc23)C1` (stereo not shown) [5-[(5-cyanofuran-2-yl)methyl]-7-hexyl-5H,6H,7H,8H,9H,10H-cyclohepta[b]indole-4-carboxylic acid], the fold induction at 10 µM stood at 1.29.

With `CCCCCCC1CCCc2c(n(Cc3cncc(C#N)c3)c3c(C(=O)O)cccc23)C1` (stereo not shown) [5-[(5-cyanopyridin-3-yl)methyl]-7-hexyl-5H,6H,7H,8H,9H,10H-cyclohepta[b]indole-4-carboxylic acid], the fold induction at 10 µM turned out to be 1.06.

On to `CCCCCCC1CCCc2c(n(Cc3ccc(C#N)s3)c3c(C(=O)O)cccc23)C1` (stereo not shown) [5-[(5-cyanothiophen-2-yl)methyl]-7-hexyl-5H,6H,7H,8H,9H,10H-cyclohepta[b]indole-4-carboxylic acid], for which the fold induction at 10 µM is 1.05.

Consider `CCCCCCC1CCCc2c(n(Cc3csc(C#N)c3)c3c(C(=O)O)cccc23)C1` (stereo not shown) [5-[(5-cyanothiophen-3-yl)methyl]-7-hexyl-5H,6H,7H,8H,9H,10H-cyclohepta[b]indole-4-carboxylic acid], for which the fold induction at 10 µM was found to be 1.2.

Consider `CCCCCCC1CCCc2c(n(Cc3cccc(C(N)=O)n3)c3c(C(=O)O)cccc23)C1` (stereo not shown) [5-[(6-carbamoylpyridin-2-yl)methyl]-7-hexyl-5H,6H,7H,8H,9H,10H-cyclohepta[b]indole-4-carboxylic acid], for which the fold induction at 10 µM amounted to 1.23.

As for `CCCCCCC1CCCc2c(n(Cc3cccc(C#N)n3)c3c(C(=O)O)cccc23)C1` (stereo not shown) [5-[(6-cyanopyridin-2-yl)methyl]-7-hexyl-5H,6H,7H,8H,9H,10H-cyclohepta[b]indole-4-carboxylic acid], the fold induction at 10 µM amounted to 1.28.

As to `CCCCCCC1CCCc2c(n(Cc3cccc(F)n3)c3c(C(=O)O)cccc23)C1` (stereo not shown) [5-[(6-fluoropyridin-2-yl)methyl]-7-hexyl-5H,6H,7H,8H,9H,10H-cyclohepta[b]indole-4-carboxylic acid], the fold induction at 10 µM is 1.25.

Consider `CCCCCCC1CCCc2c(n(Cc3cccc(C(=O)O)n3)c3c(C(=O)O)cccc23)C1` (stereo not shown) [6-({4-carboxy-7-hexyl-5H,6H,7H,8H,9H,10H-cyclohepta[b]indol-5-yl}methyl)pyridine-2-carboxylic acid], for which the fold induction at 10 µM was found to be 0.96.

For the molecule `CCCCC1CCCCc2c1n(Cc1cccc(C(N)=O)c1)c1c(C(=O)O)cccc21` (stereo not shown) [6-butyl-5-[(3-carbamoylphenyl)methyl]-5H,6H,7H,8H,9H,10H-cyclohepta[b]indole-4-carboxylic acid], the fold induction at 10 µM was 1.03.

As to `CCCCC1CCCCc2c1n(Cc1cccc(C#N)c1)c1c(C(=O)O)cccc21` (stereo not shown) [6-butyl-5-[(3-cyanophenyl)methyl]-5H,6H,7H,8H,9H,10H-cyclohepta[b]indole-4-carboxylic acid], the fold induction at 10 µM is 1.16.

For the molecule `CCCCC1CCCc2c(n(Cc3ccccc3C(N)=O)c3c(C(=O)O)cccc23)C1` (stereo not shown) [7-butyl-5-[(2-carbamoylphenyl)methyl]-5H,6H,7H,8H,9H,10H-cyclohepta[b]indole-4-carboxylic acid], the fold induction at 10 µM amounted to 1.11.

As for `CCCCC1CCCc2c(n(Cc3ccccc3C#N)c3c(C(=O)O)cccc23)C1` (stereo not shown) [7-butyl-5-[(2-cyanophenyl)methyl]-5H,6H,7H,8H,9H,10H-cyclohepta[b]indole-4-carboxylic acid], the fold induction at 10 µM worked out at 1.1.

Regarding `CCCCC1CCCc2c(n(Cc3ccccc3F)c3c(C(=O)O)cccc23)C1` (stereo not shown) [7-butyl-5-[(2-fluorophenyl)methyl]-5H,6H,7H,8H,9H,10H-cyclohepta[b]indole-4-carboxylic acid], the fold induction at 10 µM amounted to 1.11.

For the molecule `CCCCC1CCCc2c(n(Cc3ccccc3C)c3c(C(=O)O)cccc23)C1` (stereo not shown) [7-butyl-5-[(2-methylphenyl)methyl]-5H,6H,7H,8H,9H,10H-cyclohepta[b]indole-4-carboxylic acid], the fold induction at 10 µM worked out at 1.12.

`CCCCC1CCCc2c(n(Cc3cccc(C(N)=O)c3)c3c(C(=O)O)cccc23)C1` (stereo not shown) [7-butyl-5-[(3-carbamoylphenyl)methyl]-5H,6H,7H,8H,9H,10H-cyclohepta[b]indole-4-carboxylic acid]: the fold induction at 10 µM was 1.12.

Consider `CCCCC1CCCc2c(n(Cc3cccc(C(N)=O)c3)c3c(C(=O)NCCO)cccc23)C1` (stereo not shown) [7-butyl-5-[(3-carbamoylphenyl)methyl]-N-(2-hydroxyethyl)-5H,6H,7H,8H,9H,10H-cyclohepta[b]indole-4-carboxamide], for which the fold induction at 10 µM was 0.98.

Turning to `CCCCC1CCCc2c(n(Cc3cccc(C(=O)O)c3)c3c(C(=O)O)cccc23)C1` (stereo not shown) [7-butyl-5-[(3-carboxyphenyl)methyl]-5H,6H,7H,8H,9H,10H-cyclohepta[b]indole-4-carboxylic acid], the fold induction at 10 µM came out at 0.95.

Consider `CCCCC1CCCc2c(n(Cc3cccc(Cl)c3)c3c(C(=O)O)cccc23)C1` (stereo not shown) [7-butyl-5-[(3-chlorophenyl)methyl]-5H,6H,7H,8H,9H,10H-cyclohepta[b]indole-4-carboxylic acid], for which the fold induction at 10 µM stood at 1.18.
